Test results as given in paper PMC6920980, “Encapsulation in Polymeric Nanoparticles Enhances the Enzymatic Stability and the Permeability of the GLP-1 Analog, Liraglutide, Across a Culture Model of Intestinal Permeability” (Pharmaceutics, 2019).

Columns and labels:
[1] = system: Caco-2 intestinal epithelial cells; experiment: Cell viability measurement by impedance; format: cell-based, human; conditions: PN159 3 µM; for cell impedance kinetics: Caco-2, 24-h long treatment, liraglutide 100 µM; for cell index values measured by impedance (cell viability): Caco-2, liraglutide 100 µM, Triton X-100 1 mg/mL, in culture medium, kinetics for 24 h and 1-h time point, 10 kHz, n = 6–12
Description: (§1) The Caco-2 intestinal epithelial cell line was purchased from ATCC (cat.no. HTB-37) at passage 60. The cells were grown, as previously reported, in Dulbecco’s modified Eagle’s medium (Gibco, Life Technologies, Carlsbad, CA, USA) supplemented with 10% fetal bovine serum (Pan-Biotech GmbH, Aidenbach, Germany) and 50 μg/mL gentamycin in a humidified incubator with 5% CO2 at 37 °C. All plastic surfaces were coated with 0.05% rat tail collagen in sterile distilled water before cell seeding in culture dishes and the medium was changed every 2 days.
(§2) The concentration of stock solutions for cell culture experiments were 1 mM for both the therapeutic peptide liraglutide and the PN159 peptide, which was used as a reference absorption enhancer. The working solutions were diluted in cell culture medium or Ringer-buffer depending on the experiments. The final concentration of liraglutide encapsulated in the PLGA NPs was 100 µM and was diluted directly before using. Liraglutide was examined at 100 µM, while PN159 was examined at 3 µM concentration both for cell viability and permeability.
Impedance was measured at 10 kHz by an RTCA SP instrument (RTCA-SP instrument, ACEA Biosciences, San Diego, CA, USA). We have successfully tested the cellular effects of peptides and pharmaceutical excipients by impedance kinetics. For background measurements, 50 μL cell culture medium was added to the wells. This was followed by seeding the cells at a density of 6 × 10^3 cells/well to 96-well plate with gold electrodes (E-plate 96, ACEA Biosciences) coated with collagen. Cells were cultured for 5 days in a CO2 incubator at 37 °C and monitored every 10 min until the end of experiments. Cells were treated at the beginning of the plateau phase of growth. Lira, Lira-loaded PLGA NPs, blank PLGA NPs (without cargo), Lira and PN159 solution, and PN159 peptide were diluted in cell culture medium and the effects were followed for 24 h. Triton X-100 detergent (1 mg/mL) was used as a reference compound to obtain total cell toxicity. Cell index was defined as Rn-Rb at each time point of measurement, where Rn is the cell–electrode impedance of the well when it contains cells and Rb is the background impedance of the well with the medium alone.

[2] = system: pancreatin; experiment: Enzymatic degradation study in pancreatin-containing simulated intestinal fluid SIF; format: in vitro ADME, porcine; conditions: SIF with pancreatin (10 g/L, USP), pH 6.8, 37 °C, 100 rpm, 500 μg Lira in 2 mL, HPLC-UV, triplicate
Description: Stability analysis in the presence of pepsin and pancreatin was conducted and compared between native Lira and Lira loaded in PLGA NPs. Five hundred micrograms of native Lira, or the amount of NPs containing an equivalent amount of Lira, were added to 2 mL of pepsin-containing simulated gastric fluid SGF (3.2 g pepsin, 2 g of sodium chloride, 7 mL HCl, mixed and diluted with water to 1 L, pH = 1.2) or pancreatin-containing simulated intestinal fluid SIF (10 g pancreatin, 6.8 g KH2PO4, mixed and adjusted with 0.2 N NaOH then diluted with water to 1 L, pH = 6.8) and incubated at 37 °C under stirring at a speed of 100 rpm. The SGF and SIF were prepared as per USP specifications (Test Solutions, United States Pharmacopeia 35, NF 30, 2012). The same methodology was followed to assess the native Lira stability in SGFsp and SIFsp. […] The samples were centrifuged at 16,500× g and 4 °C for 10 min and the supernatant was analyzed by HPLC to calculate the residual Lira. […] Lira recovery in the withdrawn samples was calculated using the following equation: Lira recovery% = (Remaining Lira amount/theoretical Lira amount) × 100
(§3) Lira was analyzed by a reversed phase HPLC (Agilent 1200, San Diego, CA, USA) method that was previously developed and validated in our lab. […]

[3] = system: Caco-2 epithelial cell layers; experiment: Permeability study on the Caco-2 model; format: in vitro ADME, human
Description: as §1, §2
(§4) Caco-2 cells were seeded onto Transwell inserts (polycarbonate membrane, 3 µm pore size, 1.12 cm^2 surface area; Corning Life Sciences, Tewksbury, MA, USA) and cultured for three weeks. […] Treatment solutions from both compartments were collected and the Lira level was detected by HPLC.
(§5) The apparent permeability coefficients (Papp) were calculated as described previously. […]
(§6) Recovery (mass balance) was calculated according to the equation: %Recovery=CfDV^D+CfAV^A/C0DV^D×100% where C0D and CfD are the initial and final concentrations of the compound in the donor compartment, respectively; […] is the final concentration in the acceptor compartment; and V^D and V^A are the volumes of the solutions in the donor and acceptor compartments.
as §3

[4] = Permeability study on the Caco-2 model; format: in vitro ADME, human; conditions: human; Caco-2 on Transwell (polycarbonate, 3 µm pore, 1.12 cm^2), 3 weeks culture, apical to basal, Ringer-buffer pH 7.4, donor 100 µM liraglutide (PN159 3 µM where present), 1 h, HPLC-UV 214 nm, mean, n = 4; read-out: apparent permeability coefficient (Papp) of liraglutide
Description: as §1, §2, §4, §5, §6, §3

[5] = system: Caco-2 epithelial cells; experiment: Immunostaining for junctional proteins ZO-1 and β-catenin; format: cell-based, human; conditions: Caco-2 on glass coverslips, 1 h treatment, Lira 100 µM, PN159 3 µM, confocal microscopy
Description: Aiming to investigate the morphological changes in interepithelial junctions, immunostaining for the junctional proteins, zonula occludens protein-1 (ZO-1) and β-catenin, was carried out. Cells were grown on glass coverslips (Menzel-Glaser, Braunschweig, Germany) at a density of 4 × 10^4 cells/coverslips for 4 days and treated with Lira (100 µM), Lira loaded in PLGA NPs, Lira and PN159 solution, and PN159 peptide (3 µM) solutions for 1 h. After the treatment, the coverslips were washed with phosphate buffer (PBS) and the cells were fixed with 3% paraformaldehyde solution for 15 min at room temperature and incubated in 0.2% TX-100 solution for permeabilization. The cells were blocked with 3% bovine serum albumin in PBS and incubated with the rabbit primary antibodies, anti-ZO-1 and anti-β-catenin, overnight. Incubation with secondary Cy3-labeled anti-rabbit antibody lasted for 1 h. Hoechst dye 33342 was used to stain the cell nuclei. After mounting the samples (Fluoromount-G; Southern Biotech, Birmingham, AL, USA), the staining was visualized by a Visitron spinning disk confocal system (Visitron Systems GmbH, Puchheim, Germany).

CCCCCCCCCCCCCCCC(=O)N[C@@H](CCC(=O)NCCCC[C@H](NC(=O)[C@H](C)NC(=O)[C@H](C)NC(=O)[C@H](CCC(N)=O)NC(=O)CNC(=O)[C@H](CCC(=O)O)NC(=O)[C@H](CC(C)C)NC(=O)[C@H](Cc1ccc(O)cc1)NC(=O)[C@H](CO)NC(=O)[C@H](CO)NC(=O)[C@@H](NC(=O)[C@H](CC(=O)O)NC(=O)[C@H](CO)NC(=O)[C@@H](NC(=O)[C@H](Cc1ccccc1)NC(=O)[C@@H](NC(=O)CNC(=O)[C@H](CCC(=O)O)NC(=O)[C@H](C)NC(=O)[C@@H](N)Cc1cnc[nH]1)[C@@H](C)O)[C@@H](C)O)C(C)C)C(=O)N[C@@H](CCC(=O)O)C(=O)N[C@@H](Cc1ccccc1)C(=O)N[C@H](C(=O)N[C@@H](C)C(=O)N[C@@H](Cc1c[nH]c2ccccc12)C(=O)N[C@@H](CC(C)C)C(=O)N[C@H](C(=O)N[C@@H](CCCNC(=N)N)C(=O)NCC(=O)N[C@@H](CCCNC(=N)N)C(=O)NCC(=O)O)C(C)C)[C@@H](C)CC)C(=O)O [Liraglutide]
cell impedance kinetics [1]: no decrease in cell impedance kinetics | cell index values measured by impedance (cell viability) [1]: did not change the cell index values | Lira recovery ([2]; 30 min incubation, mean ± SD): 9.2 ± 0.7% | Lira degradation ([2]; 1 h incubation): completely degraded | Recovery (%) Mean ± SD (mass balance) ([3]; after liraglutide permeability on Caco-2 cells, donor 100 µM liraglutide, Ringer-buffer pH 7.4, 1 h, HPLC, mean ± SD): 80.9 ± 1.6% | Papp A→B at 1 h, 100 µM [4]: 16 ×10⁻⁶ cm/s

CC(C)C[C@H](NC(=O)[C@H](C)NC(=O)[C@H](CCCCN)NC(=O)[C@H](CC(C)C)NC(=O)[C@H](C)NC(=O)[C@H](CC(C)C)NC(=O)[C@H](CCCCN)NC(=O)[C@H](CC(C)C)NC(=O)[C@H](C)NC(=O)[C@H](CC(C)C)NC(=O)[C@@H](N)CCCCN)C(=O)N[C@@H](CCCCN)C(=O)N[C@@H](C)C(=O)N[C@@H](C)C(=O)N[C@@H](CC(C)C)C(=O)N[C@@H](CCCCN)C(=O)N[C@@H](CC(C)C)C(=O)N[C@@H](C)C(N)=O [PN159 peptide]
cell impedance kinetics [1]: no decrease in cell impedance kinetics | cell index values measured by impedance (cell viability) [1]: did not change the cell index values | junctional morphology (ZO-1 and β-catenin immunostaining) [5]: visible change in the staining pattern of β-catenin

O=C1OC2(c3ccc(O)cc3Oc3cc(O)ccc32)c2ccccc21 [fluorescein]
Papp of marker molecule ([3]; Caco-2 monolayers, TEER 893 ± 135 Ω × cm^2 before the experiments): below 0.5 × 10^−6 cm/s

Triton X-100
cell index values measured by impedance (cell viability) [1]: impedance dropped to zero
